# Assay: Vapor pressure at 25° C. by the Donovan method (gas chromatography)
# Format: physicochemical
# Description: The pyrethroid compound volatile at ambient temperature used in the present invention (hereinafter referred to as “the present active ingredient”) is a pyrethroid compound with a vapor pressure of about 6×10^−6 to about 1×10^−4 mm Hg at 25° C. when measured, for instance, by the method reported by Stephen F. Donovan (New method for estimating vapor pressure by use of gas chromatography, Journal of Chromatography A. 749(1996) 123-129, hereinafter referred to as “Donovan method”) and an ester compound represented by formula (I)
# Specific examples of the present active ingredient are 2,3,5,6-tetrafluoro-4-methylbenzyl 3-(1-propenyl)-2,2-dimethylcyclopropanecarboxylate (7.7×10^−5 mm Hg), 2,3,5,6-tetrafluoro-4-methylbenzyl 3-(2-methyl-1-propenyl)-2,2-dimethylcyclopropanecarboxylate(3.1×10^−5 mm Hg), 2,3,5,6-tetrafluorobenzyl 3-(2,2-dichlorovinyl)-2,2-dimethylcyclopropanecarboxylate (2.6×10^−5 mm Hg), 2,3,5,6-tetrafluoro-4-methoxymethylbenzyl 3-(1-propenyl)-2,2-dimethylcyclopropanecarboxylate(1.4×10^-5 mm Hg), and 2,3,5,6-tetrafluoro-4-methoxymethylbenzyl 3-(2-methyl-1-propenyl)-2,2-dimethylcyclopropanecarboxylate(6.8×10^−6 mm Hg).
row,Structure (SMILES),vapor pressure
1,"CC=CC1C(C(=O)OCc2c(F)c(F)c(COC)c(F)c2F)C1(C)C (centres unmarked) [2,3,5,6-tetrafluoro-4-methoxymethylbenzyl 3-(1-propenyl)-2,2-dimethylcyclopropanecarboxylate]",1.4×10^-5 mm Hg
2,"COCc1c(F)c(F)c(COC(=O)C2C(C=C(C)C)C2(C)C)c(F)c1F (centres unmarked) [2,3,5,6-tetrafluoro-4-methoxymethylbenzyl 3-(2-methyl-1-propenyl)-2,2-dimethylcyclopropanecarboxylate]",6.8×10^−6 mm Hg
3,"CC=CC1C(C(=O)OCc2c(F)c(F)c(C)c(F)c2F)C1(C)C (centres unmarked) [2,3,5,6-tetrafluoro-4-methylbenzyl 3-(1-propenyl)-2,2-dimethylcyclopropanecarboxylate]",7.7×10^−5 mm Hg
4,"CC(C)=CC1C(C(=O)OCc2c(F)c(F)c(C)c(F)c2F)C1(C)C (centres unmarked) [2,3,5,6-tetrafluoro-4-methylbenzyl 3-(2-methyl-1-propenyl)-2,2-dimethylcyclopropanecarboxylate]",3.1×10^−5 mm Hg
5,"CC1(C)C(C=C(Cl)Cl)C1C(=O)OCc1c(F)c(F)cc(F)c1F (centres unmarked) [2,3,5,6-tetrafluorobenzyl 3-(2,2-dichlorovinyl)-2,2-dimethylcyclopropanecarboxylate]",2.6×10^−5 mm Hg
